Tests used:
[1] = test system: wild oat; assay: Test Example 5: herbicidal effect by foliage application, plastic box (Table 20, symbol I); assay type: in vivo, wild oat (Avena fatua); conditions: foliage application, 320 g/ha, evaluated three weeks after application
Procedure, shortened: (§1)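 Sow seeds spot-wise in sterilized diluvial soil; cover with ~1.5 cm soil. Grow 14 days in greenhouse, 25° C. to 30° C. Spray foliage with emulsion diluted to predetermined amount. Rate effect after 3 weeks.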

[2] = test system: green foxtail; assay: Test Example 5: herbicidal effect by foliage application, plastic box (Table 20, symbol G); assay type: in vivo, green foxtail (Setaria viridis); conditions: foliage application, 320 g/ha, evaluated three weeks after application
Procedure, shortened: as §1

[3] = test system: oval-leafed pondweed; assay: Test Example 1: herbicidal activity, application before weed generation under submerged conditions (Table 16, symbol C); assay type: in vivo, oval-leafed pondweed (Monochoria vaginalis); conditions: 320 g/ha applied herbicide
Procedure, shortened: (§2)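 Emulsion formulation, water-diluted to set dose, was put onto the flooded surface (4 cm depth, alluvial soil) the same day weeds were sown and 2.5-leaf rice transplanted. After 3 weeks at 25-30 °C under glass, each species was rated 0 (≤5% kill) to 5 (≥90% kill).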

[4] = test system: windgrass; assay: Test Example 5: herbicidal effect by foliage application, plastic box (Table 20, symbol L); assay type: in vivo, windgrass (Apera spica-venti); conditions: foliage application, 320 g/ha, evaluated three weeks after application
Procedure, shortened: as §1

[5] = test system: wild oat; assay: Test Example 4: herbicidal effect by soil treatment (Table 19, symbol I); assay type: in vivo, wild oat (Avena fatua); conditions: amount of applied herbicide 320 g/ha
Procedure, shortened: (§3)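 Applied as a water-diluted emulsion, the compound was sprayed onto soil covering newly sown seeds. Evaluation came three weeks after application, in a greenhouse held at 25° C. to 30° C.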

[6] = test system: lambsquarters; assay: Test Example 5: herbicidal effect by foliage application, plastic box (Table 20, symbol O); assay type: in vivo, lambsquarters (Chenopodium album); conditions: foliage application, 320 g/ha, evaluated three weeks after application
Procedure, shortened: as §1

[7] = test system: blackgrass; assay: Test Example 4: herbicidal effect by soil treatment (Table 19, symbol J); assay type: in vivo, blackgrass (Alopecurus myosuroides); conditions: amount of applied herbicide 320 g/ha
Procedure, shortened: as §3

[8] = test system: chickweed; assay: Test Example 4: herbicidal effect by soil treatment (Table 19, symbol P); assay type: in vivo, common chickweed (Stellaria media); conditions: amount of applied herbicide 320 g/ha
Procedure, shortened: as §3

[9] = test system: persian speedwell; assay: Test Example 4: herbicidal effect by soil treatment (Table 19, symbol R); assay type: in vivo, Persian speedwell (Veronica persica); conditions: amount of applied herbicide 320 g/ha
Procedure, shortened: as §3

[10] = test system: Chinese sprangletop; assay: Test Example 3: herbicidal effect by foliage application, Wagner pot (Table 18, symbol D); assay type: in vivo, chinese sprangletop (Leptochloa chinensis); conditions: amount of applied herbicide 320 g/ha
Procedure, shortened: (§4)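 Plants were sown in alluvial soil held under 0.1–0.5 cm standing water and grown 14 days in a greenhouse at 25–30 °C. An emulsifiable formulation, water-diluted to the set dose, was then sprayed onto the foliage, and effects were scored three weeks later using previously defined criteria.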

[11] = test system: velvetleaf; assay: Test Example 5: herbicidal effect by foliage application, plastic box (Table 20, symbol M); assay type: in vivo, velvetleaf (Abutilon theophrasti); conditions: foliage application, 320 g/ha, evaluated three weeks after application
Procedure, shortened: as §1

[12] = test system: chickweed; assay: Test Example 5: herbicidal effect by foliage application, plastic box (Table 20, symbol P); assay type: in vivo, common chickweed (Stellaria media); conditions: foliage application, 320 g/ha, evaluated three weeks after application
Procedure, shortened: as §1

[13] = test system: redroot pigweed; assay: Test Example 4: herbicidal effect by soil treatment (Table 19, symbol N); assay type: in vivo, redroot pigweed (Amaranthus retroflexus); conditions: amount of applied herbicide 320 g/ha
Procedure, shortened: as §3

[14] = test system: persian speedwell; assay: Test Example 5: herbicidal effect by foliage application, plastic box (Table 20, symbol R); assay type: in vivo, Persian speedwell (Veronica persica); conditions: foliage application, 320 g/ha, evaluated three weeks after application
Procedure, shortened: as §1

[15] = test system: blackgrass; assay: Test Example 5: herbicidal effect by foliage application, plastic box (Table 20, symbol J); assay type: in vivo, blackgrass (Alopecurus myosuroides); conditions: foliage application, 320 g/ha, evaluated three weeks after application
Procedure, shortened: as §1

[16] = test system: late watergrass; assay: Test Example 1: herbicidal activity, application before weed generation under submerged conditions (Table 16, symbol A); assay type: in vivo, late watergrass (Echinochloa oryzicola); conditions: 320 g/ha applied herbicide
Procedure, shortened: as §2

[17] = test system: barnyard grass; assay: Test Example 4: herbicidal effect by soil treatment (Table 19, symbol H); assay type: in vivo, barnyard grass (Echinochloa crus-galli); conditions: amount of applied herbicide 320 g/ha
Procedure, shortened: as §3

[18] = test system: velvetleaf; assay: Test Example 4: herbicidal effect by soil treatment (Table 19, symbol M); assay type: in vivo, velvetleaf (Abutilon theophrasti); conditions: amount of applied herbicide 320 g/ha
Procedure, shortened: as §3

[19] = test system: southern crabgrass; assay: Test Example 4: herbicidal effect by soil treatment (Table 19, symbol F); assay type: in vivo, southern crabgrass (Digitaria ciliaris); conditions: amount of applied herbicide 320 g/ha
Procedure, shortened: as §3

[20] = test system: green foxtail; assay: Test Example 4: herbicidal effect by soil treatment (Table 19, symbol G); assay type: in vivo, green foxtail (Setaria viridis); conditions: amount of applied herbicide 320 g/ha
Procedure, shortened: as §3

[21] = test system: Japanese bulrush; assay: Test Example 1: herbicidal activity, application before weed generation under submerged conditions (Table 16, symbol B); assay type: in vivo, Japanese bulrush (Schoenoplectus juncoides); conditions: 320 g/ha applied herbicide
Procedure, shortened: as §2

[22] = test system: rice flat sedge; assay: Test Example 3: herbicidal effect by foliage application, Wagner pot (Table 18, symbol E); assay type: in vivo, rice flat sedge (Cyperus iria); conditions: amount of applied herbicide 320 g/ha
Procedure, shortened: as §4

[23] = test system: barnyard grass; assay: Test Example 3: herbicidal effect by foliage application, Wagner pot (Table 18, symbol H); assay type: in vivo, barnyard grass (Echinochloa crus-galli); conditions: amount of applied herbicide 320 g/ha
Procedure, shortened: as §4

[24] = test system: redroot pigweed; assay: Test Example 5: herbicidal effect by foliage application, plastic box (Table 20, symbol N); assay type: in vivo, redroot pigweed (Amaranthus retroflexus); conditions: foliage application, 320 g/ha, evaluated three weeks after application
Procedure, shortened: as §1

[25] = test system: lambsquarters; assay: Test Example 4: herbicidal effect by soil treatment (Table 19, symbol O); assay type: in vivo, lambsquarters (Chenopodium album); conditions: amount of applied herbicide 320 g/ha
Procedure, shortened: as §3

[26] = test system: southern crabgrass; assay: Test Example 5: herbicidal effect by foliage application, plastic box (Table 20, symbol F); assay type: in vivo, southern crabgrass (Digitaria ciliaris); conditions: foliage application, 320 g/ha, evaluated three weeks after application
Procedure, shortened: as §1

[27] = test system: Italian ryegrass; assay: Test Example 4: herbicidal effect by soil treatment (Table 19, symbol K); assay type: in vivo, Italian ryegrass (Lolium multiflorum); conditions: amount of applied herbicide 320 g/ha
Procedure, shortened: as §3

[28] = test system: Italian ryegrass; assay: Test Example 5: herbicidal effect by foliage application, plastic box (Table 20, symbol K); assay type: in vivo, Italian ryegrass (Lolium multiflorum); conditions: foliage application, 320 g/ha, evaluated three weeks after application
Procedure, shortened: as §1

[29] = test system: windgrass; assay: Test Example 4: herbicidal effect by soil treatment (Table 19, symbol L); assay type: in vivo, windgrass (Apera spica-venti); conditions: amount of applied herbicide 320 g/ha
Procedure, shortened: as §3

[30] = test system: barnyard grass; assay: Test Example 5: herbicidal effect by foliage application, plastic box (Table 20, symbol H); assay type: in vivo, barnyard grass (Echinochloa crus-galli); conditions: foliage application, 320 g/ha, evaluated three weeks after application
Procedure, shortened: as §1

CCCC(=O)Oc1c(C)nn(C)c(=O)c1-c1c(-c2ccccc2C(F)(F)F)sc2ccc(F)cc12 [2-230]
herbicidal effect on I: wild oat (criteria 0-5) [1]: 0 (Herbicidal rate of 5% or less (almost no effect))
herbicidal effect on G: green foxtail (criteria 0-5) [2]: 3 (Herbicidal rate of 40% or more and less than 70%)
Herbicidal effect on C: oval-leafed pondweed (grade 0-5) [3]: 0 (Herbicidal rate of 5% or less (almost no effect))
herbicidal effect on L: windgrass (criteria 0-5) [4]: 3 (Herbicidal rate of 40% or more and less than 70%)
herbicidal effect on I: wild oat [5]: 0 (Herbicidal rate of 5% or less (almost no effect))
herbicidal effect on O: lambsquarters (criteria 0-5) [6]: 4 (Herbicidal rate of 70% or more and less than 90%)
herbicidal effect on J: blackgrass [7]: 0 (Herbicidal rate of 5% or less (almost no effect))
herbicidal effect on P: chickweed [8]: 3 (Herbicidal rate of 40% or more and less than 70%)
herbicidal effect on R: persian speedwell [9]: 0 (Herbicidal rate of 5% or less (almost no effect))
herbicidal effect on D: Chinese sprangletop [10]: 5 (Herbicidal rate of 90% or more (almost completely withered))
herbicidal effect on M: velvetleaf (criteria 0-5) [11]: 5 (Herbicidal rate of 90% or more (almost completely withered))
herbicidal effect on P: chickweed (criteria 0-5) [12]: 5 (Herbicidal rate of 90% or more (almost completely withered))
herbicidal effect on N: redroot pigweed [13]: 0 (Herbicidal rate of 5% or less (almost no effect))
herbicidal effect on R: persian speedwell (criteria 0-5) [14]: 5 (Herbicidal rate of 90% or more (almost completely withered))
herbicidal effect on J: blackgrass (criteria 0-5) [15]: 0 (Herbicidal rate of 5% or less (almost no effect))
Herbicidal effect on A: late watergrass (grade 0-5) [16]: 3 (Herbicidal rate of 40% or more and less than 70%)
herbicidal effect on H: barnyard grass [17]: 0 (Herbicidal rate of 5% or less (almost no effect))
herbicidal effect on M: velvetleaf [18]: 0 (Herbicidal rate of 5% or less (almost no effect))
herbicidal effect on F: southern crabgrass [19]: 0 (Herbicidal rate of 5% or less (almost no effect))
herbicidal effect on G: green foxtail [20]: 0 (Herbicidal rate of 5% or less (almost no effect))
Herbicidal effect on B: Japanese bulrush (grade 0-5) [21]: 0 (Herbicidal rate of 5% or less (almost no effect))
herbicidal effect on E: rice flat sedge [22]: 5 (Herbicidal rate of 90% or more (almost completely withered))
herbicidal effect on H: barnyard grass [23]: 4 (Herbicidal rate of 70% or more and less than 90%)
herbicidal effect on N: redroot pigweed (criteria 0-5) [24]: 5 (Herbicidal rate of 90% or more (almost completely withered))
herbicidal effect on O: lambsquarters [25]: 0 (Herbicidal rate of 5% or less (almost no effect))
herbicidal effect on F: southern crabgrass (criteria 0-5) [26]: 0 (Herbicidal rate of 5% or less (almost no effect))
herbicidal effect on K: Italian ryegrass [27]: 2 (Herbicidal rate of 20% or more and less than 40%)
herbicidal effect on K: Italian ryegrass (criteria 0-5) [28]: 3 (Herbicidal rate of 40% or more and less than 70%)
herbicidal effect on L: windgrass [29]: 0 (Herbicidal rate of 5% or less (almost no effect))
herbicidal effect on H: barnyard grass (criteria 0-5) [30]: 2 (Herbicidal rate of 20% or more and less than 40%)

Cc1nn(C)c(=O)c(-c2c(-c3cccc(OC(F)(F)F)c3)sc3ccc(F)cc23)c1O [2-236]
herbicidal effect on I: wild oat (criteria 0-5) [1]: 0 (Herbicidal rate of 5% or less (almost no effect))
herbicidal effect on G: green foxtail (criteria 0-5) [2]: 3 (Herbicidal rate of 40% or more and less than 70%)
Herbicidal effect on C: oval-leafed pondweed (grade 0-5) [3]: 2 (Herbicidal rate of 20% or more and less than 40%)
herbicidal effect on L: windgrass (criteria 0-5) [4]: 1 (Herbicidal rate of 5% or more and less than 20%)
herbicidal effect on I: wild oat [5]: 0 (Herbicidal rate of 5% or less (almost no effect))
herbicidal effect on O: lambsquarters (criteria 0-5) [6]: 2 (Herbicidal rate of 20% or more and less than 40%)
herbicidal effect on J: blackgrass [7]: 0 (Herbicidal rate of 5% or less (almost no effect))
herbicidal effect on P: chickweed [8]: 0 (Herbicidal rate of 5% or less (almost no effect))
herbicidal effect on R: persian speedwell [9]: 0 (Herbicidal rate of 5% or less (almost no effect))
herbicidal effect on D: Chinese sprangletop [10]: 3 (Herbicidal rate of 40% or more and less than 70%)
herbicidal effect on M: velvetleaf (criteria 0-5) [11]: 1 (Herbicidal rate of 5% or more and less than 20%)
herbicidal effect on P: chickweed (criteria 0-5) [12]: 5 (Herbicidal rate of 90% or more (almost completely withered))
herbicidal effect on N: redroot pigweed [13]: 2 (Herbicidal rate of 20% or more and less than 40%)
herbicidal effect on R: persian speedwell (criteria 0-5) [14]: 3 (Herbicidal rate of 40% or more and less than 70%)
herbicidal effect on J: blackgrass (criteria 0-5) [15]: 0 (Herbicidal rate of 5% or less (almost no effect))
Herbicidal effect on A: late watergrass (grade 0-5) [16]: 3 (Herbicidal rate of 40% or more and less than 70%)
herbicidal effect on H: barnyard grass [17]: 0 (Herbicidal rate of 5% or less (almost no effect))
herbicidal effect on M: velvetleaf [18]: 0 (Herbicidal rate of 5% or less (almost no effect))
herbicidal effect on F: southern crabgrass [19]: 0 (Herbicidal rate of 5% or less (almost no effect))
herbicidal effect on G: green foxtail [20]: 0 (Herbicidal rate of 5% or less (almost no effect))
Herbicidal effect on B: Japanese bulrush (grade 0-5) [21]: 3 (Herbicidal rate of 40% or more and less than 70%)
herbicidal effect on E: rice flat sedge [22]: 5 (Herbicidal rate of 90% or more (almost completely withered))
herbicidal effect on H: barnyard grass [23]: 4 (Herbicidal rate of 70% or more and less than 90%)
herbicidal effect on N: redroot pigweed (criteria 0-5) [24]: 5 (Herbicidal rate of 90% or more (almost completely withered))
herbicidal effect on O: lambsquarters [25]: 1 (Herbicidal rate of 5% or more and less than 20%)
herbicidal effect on F: southern crabgrass (criteria 0-5) [26]: 0 (Herbicidal rate of 5% or less (almost no effect))
herbicidal effect on K: Italian ryegrass [27]: 0 (Herbicidal rate of 5% or less (almost no effect))
herbicidal effect on K: Italian ryegrass (criteria 0-5) [28]: 0 (Herbicidal rate of 5% or less (almost no effect))
herbicidal effect on L: windgrass [29]: 0 (Herbicidal rate of 5% or less (almost no effect))
herbicidal effect on H: barnyard grass (criteria 0-5) [30]: 0 (Herbicidal rate of 5% or less (almost no effect))

Reference: patent publication US20230085307A1, “PYRIDAZINONE COMPOUND AND HERBICIDE” (NISSAN CHEMICAL CORPORATION, priority 2019, published 2023)
